Test results from patent US11612651B2, “Steroid acid-based immunogen enhancers” (priority 2021, dated 2023).
No end group written: not given here. *: point of attachment. Cholyl = C[C@H](CCC(=O)*)[C@H]1CC[C@H]2[C@@H]3[C@H](O)C[C@@H]4C[C@H](O)CC[C@]4(C)[C@H]3C[C@H](O)[C@]12C

What was measured:
[1] = tested on: cross-presenting mesenchymal stromal cell (MSC) line; experiment: Antigen internalization: MSC line pulsed with OVA labelled with Alexa Fluor 647, flow cytometry; assay type: cell-based; conditions: various conjugate:OVA molar ratios, FIGS. 7A-7D
Description: FIGS. 7A to 7D show the effect of different NLS peptides on the antigen internalization activity of cholic acid-NLS peptide conjugates. For this experiment, a cross-presenting mesenchymal stromal cell (MSC) line was used as the antigen presenting cells, which were pulsed with OVA labelled with Alexa Fluor 647 (i.e., OVA^647)™. OVA^647 fluorescence was measured by flow cytometry. Different ratios of CA (NLS1 RPS17 [FIG. 7A]; NLS3 RPS17 [FIG. 7B]; PQBP-1 [FIG. 7C]; and hnRNPA1 M9 NLS [FIG. 7D]) to antigen (CA:OVA=22:1, 12:1, 8:1, 4:1, and 2:1) were tested (hnRNPA1 M9 NLS at 2:1).
(§1) To further dissect the effect of bile acid peptide conjugates on antigen presentation, antigen internalization and processing were evaluated. MSC cell lines were pulsed with OVA-labelled with AF647 in the presence of various molar ratios of different bile acid peptide conjugates, NLS1-RPS17 [FIG. 7A]; NLS3 RPS17 [FIG. 7B]; PQBP-1 [FIG. 7C]; and hnRNPA1 M9 NLS [FIG. 7D]) and fluorescence was assessed by flow cytometry. […] OVA processing was assessed by pulsing MSC cell lines with DQ™-Ovalbumin (OVA-DQ) in the presence of the same bile acid peptide conjugates as in FIGS. 7A to 7D.

B3Z cells [2] = experiment: Antigen-presentation assay using the B3Z reporter system, BMDCs as antigen presenting cells; assay type: cell-based, mouse; conditions: for antigen-presentation activity of cholic acid-NLS peptide conjugate (B3Z response OD570): BMDCs as antigen presenting cells, mixed with OVA at best conjugate:antigen ratio, FIGS. 3-5; for antigen cross-presentation (B3Z response) compared with OVA alone: BMDCs, molar ratio (bile acid/peptide/conjugate):antigen 4:1, mixed with OVA, FIG. 2
Text: For this experiment, BMDCs were used as the antigen presenting cells (n=6) and the molar ratio (bile acid/peptide/conjugate): antigen was 4:1. Controls tested included no antigen (“PBS”), antigen alone (“OVA alone”), unconjugated NLS peptide (“SV40NLS”), unconjugated cholic acid mixed with OVA (“CA”), and the positive control peptide SIINFEKL (SEQ ID NO: 9) mixed with OVA (“SIINFEKL”). The dashed line represents the signal obtained with OVA alone. Bile acids: cholic acid (CA); glycodeoxycholic acid (GDCA); glycochenodeoxycholic acid (GCDCA); ursodeoxycholic acid (UDCA); and lithocholic acid (LCA).
The dashed line represents the signal obtained with OVA alone. The readout was taken after 24 h of incubation and error bars represent SD (n=6). For this experiment, BMDCs were used as the antigen presenting cells.
The dashed line represents the signal obtained with OVA alone. Readout was taken after 24 h of incubation from a single experiment. The molar ratio of CA-peptide conjugate: OVA was 22:1. For this experiment, BMDCs were used as the antigen presenting cells.
For this experiment, BMDCs were used as the antigen presenting cells. The dashed line represents the signal obtained with OVA alone. Readout was taken after 24 h of incubation from a single experiment. The molar ratio of CA-peptide conjugate: OVA was as follows: CA-GWG-SV40NLS (12:1); CA-hnRNP M NLS (12:1); CA-NLS2-RPS17 NLS (22:1); CA-HuR NLS (22:1); CA-cMyc NLS (2:1); CA-NLS3-RPS17 NLS (22:1); CA-NLS2-RG-RPS17 NLS (2:1); CA-PQBP1 NLS (8:1); CA-hnRNPA1 M9 NLS (22:1); and CA-SV40 NLS (2:1).
(§2) Various bile acid-NLS conjugates were screened using the B3Z reporter system. The B3Z cell line is a T-cell hybridoma specific for the H2-K^b-SIINFEKL complex. Once activated via its TCR, the LacZ reporter gene (under the NFAT promoter control) is expressed. Briefly, 1.5×10^5 BMDCs or 2.5×10^5 MSCs were co-cultured with 5×10^4 B3Z cells treated with the mixing conditions of ovalbumin (OVA) and bile acid-NLS conjugates for overnight at 37° C. with 5% CO2. The following day, all cells were washed twice with PBS (pH 7.4), and the cell pellets were lysed by adding 100 μL of a lysis buffer containing 0.15 mM chlorophenol red-beta-D-galactopyranoside (CPRG) substrate (Calbiochem, La Jolla, Calif.), 0.125% NP40 (EMD Sciences, La Jolla, Calif.), 9 mM MgCl2 (Aldrich, USA) and 100 mM 2-mercaptoethanol in PBS. After a 5- or 24-h incubation at 37° C., absorbance was taken at 570 nm with 636 nm as the reference wavelength. For these experiments, OVA was re-suspended in PBS (pH 7.3) at 5-10 mg/mL. The different bile acid-NLS conjugates were re-suspended in H2O at 10 mg/mL. Bile acid-NLS conjugate: antigen mixtures were prepared at different molar ratios according to Table 2.
Variants of CA-SV40NLS were synthesized in order to explore structure-activity relationships relating to the antigen cross-presentation enhancing activity observed for this conjugate. More particularly, conjugates having different bile acids conjugated to the SV40NLS peptide (SEQ ID NO: 1) were synthesized and their effect on antigen presentation was evaluated by using the B3Z reporter system with the OVA antigen as described in Example 1. […] In FIG. 2, no increase in antigen cross-presentation over the antigen alone (“OVA”) was observed when OVA was mixed with either unconjugated cholic acid (“CA”) or SV40NLS peptide (“SV40NLS”), although lower sensitivity of the B3Z reporter system as compared to the OT-I CD8 T cell-based assay used in FIG. 1 may have been a factor.
(§3) Further variants of CA-SV40NLS were synthesized in which the SV40NLS peptide was replaced with peptides comprising other NLS's (Table 3) and the antigen presentation activities of the CA-NLS peptide conjugates were evaluated using the B3Z reporter system as described in Example 1. The following conjugate:antigen molar ratios were tested for each conjugate: 2:1, 4:1, 8:1, 12:1 and 22:1. […]

[3] = tested on: cross-presenting mesenchymal stromal cell (MSC) line; experiment: Antigen processing: MSC line pulsed with DQ Ovalbumin (OVA-DQ), flow cytometry; assay type: cell-based; conditions: various conjugate:OVA molar ratios, FIGS. 8A-8D
Description: FIGS. 8A to 8D show the effect of different NLS peptides on the antigen processing activity of cholic acid-NLS peptide conjugates. For this experiment, a cross-presenting mesenchymal stromal cell (MSC) line was used as the antigen presenting cells, which were pulsed with DQ™ Ovalbumin (i.e., OVA^DQ). OVA^DQ fluorescence was measured by flow cytometry. Different ratios of CA (NLS1 RSP17 [FIG. 8A]; NLS3 RPS17 [FIG. 8B]; PQBP-1 [FIG. 8C]; and hnRNPA1 M9 NLS [FIG. 8D]) to antigen (CA:OVA=22:1, 12:1, 8:1, 4:1, and 2:1) were tested (hnRNPA1 M9 NLS at 2:1).
as §1

B3Z cells [4] = experiment: Antigen-presentation assay using the B3Z reporter system, cross-presenting MSC line as antigen presenting cells; assay type: cell-based; conditions: compared to OVA alone or OVA mixed with CA-SV40NLS, FIG. 6
Description: For this experiment, a cross-presentation mesenchymal stromal cell (MSC) line was used as the antigen presenting cells. The dashed line represents the signal obtained with OVA alone. Readout was taken after 24 h of incubation. The molar ratio of CA-peptide conjugate: OVA was as follows: CA-GWG-SV40NLS (2:1); CA-hnRNP M NLS (8:1); CA-hnRNP D NLS (12:1); CA-NLS2-RG-RPS17 (4:1); CA-cMyc NLS (12:1); CA-HuR NLS (12:1); CA-Tus NLS (2:1); CA-NLS2-RPS17 NLS (4:1); CA-PQBP1 NLS (12:1); CA-hnRNPA1 M9 NLS (2:1); and CA-SV40 NLS (2:1).
as §2, §3

GII.3 human norovirus = conditions: host intestinal cells; free bile acids; cited from earlier work

| Molecule | OVA internalization (OVA-AF647 fluorescence) [1] | antigen-presentation activity of cholic acid-NLS peptide conjugate (B3Z response OD570) (B3Z cells [2]) | OVA processing (OVA-DQ fluorescence) [3] | further results |
| --- | --- | --- | --- | --- |
| CA-NLS3-RPS17 NLS: cholic acid conjugated to peptide SKKLRNKIAGYVTHLMKRI (SEQ ID NO: 8) (also: cholic acid conjugate, site not given here) | enhance OVA internalization | high antigen presentation activity | enhance OVA processing |  |
| CA-HuR NLS: cholic acid conjugated to peptide CGRFSPMGVDHMSGLSGVNVPG (SEQ ID NO: 13) (also: cholic acid conjugate, site not given here) |  | high antigen presentation activity |  | antigen-presentation activity of cholic acid-NLS peptide conjugate (B3Z response OD570) (B3Z cells [4]): strikingly high antigen-presentation activity |
| CA-NLS2-RG-RPS17 NLS: cholic acid conjugated to NLS2-RG Domain RPS17 peptide (SEQ ID NO: 11) (CNKRVCEEIAIIPSKKLRNKGSGRIQRGPVRGIS; cysteine pairing not given here; also: cholic acid conjugate, site not given here) |  | high antigen presentation activity |  |  |
| CA-GWG-SV40NLS: cholic acid conjugated to peptide CGWWGYGPKKKRKVGGWWG (SEQ ID NO: 3) (also: cholic acid conjugate, site not given here) |  | higher antigen-presentation activity than SV40NLS |  | antigen-presentation activity of cholic acid-NLS peptide conjugate (B3Z response OD570) (B3Z cells [4]): strikingly high antigen-presentation activity |
| C[C@H](CCC(=O)NCC(=O)O)[C@H]1CC[C@H]2[C@@H]3[C@@H](O)C[C@@H]4C[C@H](O)CC[C@]4(C)[C@H]3CC[C@]12C [GUDCA, glycoursodeoxycholic acid] |  |  |  | immunogen enhancer activity (B3Z reporter system) (B3Z cells [2]; GUDCA:OVA molar ratios 2:1, 4:1, 8:1, 12:1 and 22:1): observed at all GUDCA:OVA molar ratios tested; increase in B3Z response (OD570) over the OVA alone (B3Z cells [2]; unconjugated GUDCA mixed with OVA, 22:1, data not shown): ≤ 30% |
| C[C@H](CCC(=O)NCC(=O)O)[C@H]1CC[C@H]2[C@@H]3[C@H](O)C[C@@H]4C[C@H](O)CC[C@]4(C)[C@H]3C[C@H](O)[C@]12C [GCA, glycocholic acid] |  |  |  | effect on GII.3 human norovirus infection and replication (GII.3 human norovirus): increase GII.3 human norovirus infection and replication |
| CA-hnRNPA1 M9 NLS: cholic acid conjugated to peptide CSNFGPMKGGNFGGRSSGPY (SEQ ID NO: 4) (also: cholic acid conjugate, site not given here) | enhance OVA internalization |  | enhance OVA processing |  |
| CA-PQBP1 NLS: cholic acid conjugated to peptide CADREEGKERRHHRREELAPY (SEQ ID NO: 6) (also: cholic acid conjugate, site not given here) | enhance OVA internalization | strikingly high antigen-presentation activity | enhance OVA processing | antigen-presentation activity of cholic acid-NLS peptide conjugate (B3Z response OD570) (B3Z cells [4]): strikingly high antigen-presentation activity |
| CA-cMyc NLS: cholic acid conjugated to peptide CGYGPAAKRVKLDGG (SEQ ID NO: 12) (also: cholic acid conjugate, site not given here) |  | high antigen presentation activity |  |  |
| SV40NLS: unconjugated NLS peptide CGYGPKKKRKVGG (SEQ ID NO: 1) (SV40NLS) [reference compound] |  |  |  | antigen cross-presentation (B3Z response) compared with OVA alone (B3Z cells [2]): no increase |
| CA-SV40NLS: cholic acid conjugated to the N-terminal cysteine amino group of 13-mer peptide CGYGPKKKRKVGG (SEQ ID NO: 1) (Cholyl-CGYGPKKKRKVGG) |  |  |  | antigen cross-presentation (B3Z response) compared with OVA alone (B3Z cells [2]): increased antigen cross-presentation |
| NLS1-RPS17: cholic acid conjugated to peptide CMGRVRTKTVKKAAGG (SEQ ID NO: 15) (also: cholic acid conjugate, site not given here) | enhance OVA internalization |  | enhance OVA processing |  |
| C[C@H](CCC(=O)NCCS(=O)(=O)O)[C@H]1CC[C@H]2[C@@H]3[C@H](O)C[C@@H]4C[C@H](O)CC[C@]4(C)[C@H]3C[C@H](O)[C@]12C [TCA, taurocholic acid] |  |  |  | effect on GII.3 human norovirus infection and replication (GII.3 human norovirus): increase GII.3 human norovirus infection and replication |
